Measurements from patent US20240360179A1, “STAPLED PEPTIDES AND METHODS THEREOF” (FOG PHARMACEUTICALS, INC., priority 2021, published 2024).
Like-named read-outs stand apart in the source and are kept apart here.

What was measured:
[1] = target: T1, TCF/LEF luciferase reporter in DLD1 cells (Homo sapiens, UniProt P35222); test: TCF reporter assay in DLD1 cells (4% or 20% FBS); type: cell-based
T1 sequence (P35222 2-781): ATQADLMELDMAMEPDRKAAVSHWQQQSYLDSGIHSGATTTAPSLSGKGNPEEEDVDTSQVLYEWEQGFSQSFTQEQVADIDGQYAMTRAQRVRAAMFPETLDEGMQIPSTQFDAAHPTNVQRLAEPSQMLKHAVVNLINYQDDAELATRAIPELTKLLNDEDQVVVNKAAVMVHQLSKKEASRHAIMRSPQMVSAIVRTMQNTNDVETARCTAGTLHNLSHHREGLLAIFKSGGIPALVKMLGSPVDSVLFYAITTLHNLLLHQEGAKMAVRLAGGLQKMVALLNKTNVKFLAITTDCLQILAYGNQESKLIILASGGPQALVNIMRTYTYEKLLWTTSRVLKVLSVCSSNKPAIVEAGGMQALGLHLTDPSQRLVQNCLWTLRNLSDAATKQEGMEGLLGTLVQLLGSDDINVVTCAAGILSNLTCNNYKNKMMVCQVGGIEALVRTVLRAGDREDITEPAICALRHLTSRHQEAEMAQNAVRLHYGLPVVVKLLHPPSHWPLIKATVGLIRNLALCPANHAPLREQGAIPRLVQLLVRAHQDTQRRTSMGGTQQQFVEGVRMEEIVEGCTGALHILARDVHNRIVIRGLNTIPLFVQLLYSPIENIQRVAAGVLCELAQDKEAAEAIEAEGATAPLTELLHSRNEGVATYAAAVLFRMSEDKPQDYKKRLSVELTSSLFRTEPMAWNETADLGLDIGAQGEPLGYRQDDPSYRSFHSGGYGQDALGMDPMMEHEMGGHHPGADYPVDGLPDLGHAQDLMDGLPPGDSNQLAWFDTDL

[2] = target: T2, full-length B-Catenin (Uniprot ID P35222) (Homo sapiens, UniProt P35222); type: binding
T2 construct: 10 nM full-length B-Catenin (Uniprot ID P35222)
T2 sequence (P35222 1-781): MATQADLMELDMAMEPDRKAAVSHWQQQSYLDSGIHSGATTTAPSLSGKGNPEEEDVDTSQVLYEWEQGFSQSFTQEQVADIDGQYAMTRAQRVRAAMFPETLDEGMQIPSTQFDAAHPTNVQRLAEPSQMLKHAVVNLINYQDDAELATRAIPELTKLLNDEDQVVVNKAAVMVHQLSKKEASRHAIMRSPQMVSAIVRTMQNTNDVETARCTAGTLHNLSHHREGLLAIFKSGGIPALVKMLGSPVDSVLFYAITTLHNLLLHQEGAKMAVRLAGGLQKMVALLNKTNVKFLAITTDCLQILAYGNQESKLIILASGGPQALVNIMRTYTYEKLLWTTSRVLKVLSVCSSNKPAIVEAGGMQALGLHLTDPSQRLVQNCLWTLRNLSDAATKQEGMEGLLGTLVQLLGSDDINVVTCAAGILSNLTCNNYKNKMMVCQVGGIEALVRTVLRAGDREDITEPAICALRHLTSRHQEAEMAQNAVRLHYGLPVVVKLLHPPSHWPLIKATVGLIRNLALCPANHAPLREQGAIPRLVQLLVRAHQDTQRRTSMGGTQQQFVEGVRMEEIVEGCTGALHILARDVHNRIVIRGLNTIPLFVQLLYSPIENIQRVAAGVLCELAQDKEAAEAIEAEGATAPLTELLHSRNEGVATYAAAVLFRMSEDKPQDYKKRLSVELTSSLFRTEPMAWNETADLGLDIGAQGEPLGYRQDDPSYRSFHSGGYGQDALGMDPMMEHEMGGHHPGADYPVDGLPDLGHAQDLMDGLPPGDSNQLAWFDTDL

COLO320DM cells = test: COLO320DM proliferation assay (CellTiter-Glo); type: cell-based, human; settings: read-out: COLO320DM Proliferation Abs IC50
Outline: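 COLO320DM cells, 250 cells/well in RPMI-1640 with 4% FBS, attached 18-22 h, then exposed 96 h at 37 °C, 5% CO2 to 7-point 1/2 dilutions from 20 uM to 313 nM. Viability by CellTiter-Glo luminescence; IC50 derived from the dose curve.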

[3] = target: T3, beta-catenin/TCF4 interaction (Homo sapiens, UniProt P35222); type: cell-based; settings: read-out: NanoBRET Abs IC50
T3 construct: host or cells: HEK293
T3 sequence (P35222 1-781): T2 sequence (P35222 1-781)

[4] = read-out: DLD1 4% Abs IC50, DLD1 TCF reporter, 4% FBS
[5] = read-out: DLD1 4% Abs IC50, DLD1 TCF reporter, 4% FBS, absolute IC50

Row | Substance | IC50 [1, 4] | other results
1 | Ac-PL3-Asp-Npg-B5-Asp-3COOHF-Ala-Ala-Phe-iPrLys*3-PyrS2-3Thi-BztA-hGlnR*3-Ala-NH2 [I-187] | > 5000 nM | –
2 | Ac-PL3-Asp-Npg-B5-Asp-3COOHF-Aib-Ala-Phe-Lys*3-PyrS2-2F3MeF-BztA-GlnR*3-Ala-NH2 [I-69] | ≤ 1000 nM | IC50 ([2]; read-out: beta-Catenin FP IC50): < 50 nM; IC50 (COLO320DM cells): ≤ 10 µM
3 | Ac-PL3-Asp-Npg-B5-Asp-TfeGA-Ala-Ala-Phe-Lys*3-PyrS2-2F3MeF-BztA-GlnR*3-Leu-NH2 [I-128] | 1000 to 5000 nM | –
4 | Ac-PL3-Asp-Npg-B5-Asp-3COOHF-Npg-Ala-Phe-Lys*3-PyrS2-2F3MeF-BztA-GlnR*3-Ala-NH2 [I-99] | ≤ 1000 nM | –
5 | Ac-PL3-Asp-Npg-B5-Asp-3COOHF-Aib-Ala-Phe-sAla*3-PyrS2-3Thi-BztA-TriAzLys*3-Ala-NH2 [I-336] | – | IC50 [1, 5]: 1000 to 5000 nM
6 | Ac-PL3-Asp-Npg-B5-Asp-3COOHF-Npg-Ala-Phe-Lys*3-PyrS2-2F3MeF-BztA-GlnR*3-Leu-NH2 [I-109] | 1000 to 5000 nM | IC50 [3]: > 10 µM
7 | Ac-PL3-Asp-Npg-B5-Asp-3COOHF-Aib-Ala-Phe-Lys*3-PyrS2-3Thi-BztA-GlnR*3-Glu-Ala-NH2 [I-342] | – | IC50 [1, 5]: ≤ 1000 nM
8 | Ac-PL3-Asp-Npg-B5-Asp-3COOHF-Ala-Ala-Phe-Lys*3-PyrS2-3Thi-BztA-GlnR*3-Prool [I-64] | 1000 to 5000 nM | IC50 (COLO320DM cells): 10 to 20 µM
9 | Ac-PL3-Asp-Npg-B5-Asp-TfeGA-Ala-Ala-Phe-Lys*3-PyrS2-2F3MeF-BztA-GlnR*3-Val-NH2 [I-129] | 1000 to 5000 nM | –
10 | Ac-PL3-Asp-Npg-B5-Asp-3COOHF-Aib-Ala-Phe-Lys*3-PyrS2-2F3MeF-BztA-GlnR*3-Leu-Ser-NH2 [I-138] | ≤ 1000 nM | IC50 (COLO320DM cells): ≤ 10 µM
11 | Ac-PL3-Asp-Npg-B5-Asp-3COOHF-Aib-Ala-Phe-TriAzLys*3-PyrS2-3Thi-BztA-sCH2S*3-Ala-NH2 [I-262] | ≤ 1000 nM | IC50 (COLO320DM cells): ≤ 10 µM
12 | Ac-PL3-Asp-Npg-B5-Asp-3COOHF-nLeu-Ala-Phe-Lys*3-PyrS2-3Thi-BztA-GlnR*3-Ala-NH2 [I-70] | ≤ 1000 nM | IC50 (COLO320DM cells): ≤ 10 µM
13 | Ac-PL3-Glu-Npg-B5-Glu-3COOHF-Aib-Ala-Phe-Lys*3-PyrS2-2F3MeF-BztA-GlnR*3-Ala-NH2 [I-291] | 1000 to 5000 nM | –
14 | Ac-PL3-Asp-Npg-B5-Asp-3COOHF-Ala-Ala-Phe-sAla*3-PyrS2-3Thi-BztA-TriAzLys*3-Ala-NH2 [I-338] | – | IC50 [1, 5]: ≤ 1000 nM
15 | 5hexenyl-MePro-Asp-AllylGly-R5-Asp-3COOHF-Aib-Ala-Phe-Lys*3-PyrS2-3Thi-BztA-GlnR*3-Ala-NH2 [I-430] | – | IC50 [3]: > 10 µM
16 | Ac-PL3-Asp-Npg-B5-Asp-3COOHF-Cbg-Ala-Phe-Lys*3-PyrS2-2F3MeF-BztA-GlnR*3-Leu-Ser-NH2 [I-140] | ≤ 1000 nM | –
17 | Ac-PL3-aThr-Npg-B5-Asp-3COOHF-Aib-Ala-Phe-Lys*3-PyrS2-3Thi-BztA-GlnR*3-Ala-NH2 [I-163] | > 5000 nM | –
18 | Ac-PL3-Asp-Npg-B5-Asp-3COOHF-Ala-Ala-Phe-sAla*3-PyrS2-3Thi-BztA-TriAzLys*3-NH2 [I-24] | 1000 to 5000 nM | –
19 | Ac-PL3-Asp-Npg-B5-Asp-3COOHF-Aib-Ala-Phe-[3_3-biph]Cys-PyrS2-3Thi-BztA-Cys-Ala-NH2 [I-567] | – | IC50 ([2]; read-out: beta-catenin TCF4 competition FP assay IC50): 120 nM; IC50 ([1]; read-out: beta-catenin TCF4 DLD1 cell reporter assay IC50): > 20000 nM
20 | Ac-PL3-Asp-Cha-B5-Asp-3COOHF-Ala-Ala-Phe-Lys*3-PyrS2-2F3MeF-BztA-GlnR*3-Leu-NH2 [I-106] | ≤ 1000 nM | –
